In patent US20260356817A1, “AMINOPYRIMIDINE AND AMINOTRIAZINE DERIVATIVES AS MYC PROTEIN MODULATORS” (Sanford Burnham Prebys Medical Discovery Institute, priority 2022, published 2026):
Where two headings read alike, the source gives them in different places. Each block holds one compound with its values, some of them ahead of it.

Key:
[1] = system: Myc; experiment: Western blot of Myc in HL-60 cells (acute promyelocytic leukemia); type: cell-based; conditions: 0.18 μM and 1.0 μM, 4 hours, Western blot (FIG. 5B)
Procedure: (§1) Cell lines derived from acute monocytic leukemia, acute promyelocytic leukemia, pancreatic adenocarcinoma and small cell lung cancer were treated with vehicle (DMSO) or the indicated concentrations of Compound 171 for 4 hours, and then lysed and subjected to Western blotting using antibodies specific for Myc or GAPDH as control.

[2] = Plasma and brain concentrations in NSG mice after oral administration (LCMS); type: in vivo, mice (non-tumor-bearing NSG); conditions: 100 mg/kg oral
Procedure: Non-tumor-bearing NOD-SCID-IL2Rgamma knockout (NSG) mice were treated with Compound 171 at 100 mg/kg via oral administration. Blood was collected retro-orbitally or by cardiac puncture for measuring compound concentrations. For measurements of compound concentration in the brain, animals were sacrificed, and brain tissue was harvested and homogenized. Compound concentration was determined by liquid chromatography-mass spectrometry (LCMS).

[3] = system: Myc; experiment: Western blot of Myc in cultured medulloblastoma PDX cells; type: cell-based, human (patient-derived); conditions: 0.18 μM, Western blot (FIG. 4A)
Procedure: (§2) Medulloblastoma PDX cells were harvested from the brains of tumor-bearing mice, cultured overnight, and then treated with Compound 171 for various amounts of time. Cells cultured for time points of 1 hour, 2 hours, and 4 hours were lysed and subjected to Western blotting with antibodies specific for Myc or GAPDH as control, as shown in FIG. 4A. Cells cultured for longer time points of 48 hours and 96 hours were assayed for viability using the CellTiter Glo assay, as shown in FIG. 4B and FIG. 4C.

[4] = system: medulloblastoma PDX cells; experiment: CellTiter Glo viability of medulloblastoma PDX cells; type: cell-based, human (patient-derived); conditions: 0.18 μM
Procedure: as §2

[5] = system: Myc; experiment: Western blot of Myc in H-82 cells (small cell lung cancer); type: cell-based; conditions: 0.18 μM and 1.0 μM, 4 hours, Western blot (FIG. 5D)
Procedure: as §1

[6] = system: Myc; experiment: Western blot of Myc in THP-1 cells (acute monocytic leukemia); type: cell-based; conditions: 0.18 μM and 1.0 μM, 4 hours, Western blot (FIG. 5A)
Procedure: as §1

[7] = system: PDX511 medulloblastoma cells; experiment: Cell viability of PDX511 medulloblastoma cells at 4 hours; type: cell-based, human (patient-derived)
[8] = system: Myc; experiment: Myc levels in intracranial medulloblastoma PDX tumors in mice after oral administration (Western blot); type: in vivo, NSG mice transplanted with medulloblastoma PDX cells
Procedure: NSG mice transplanted with medulloblastoma PDX cells were treated by oral administration with either vehicle (10% DMSO, 10% Tween 80) or Compound 171 (100 mg/kg). After 5.5 hours, animals were sacrificed, and tumors were harvested, dissociated, lysed and subjected to Western blotting with antibodies specific for Myc or GAPDH as control.

[9] = system: Myc; experiment: Western blot of Myc in BxPC-3 cells (pancreatic adenocarcinoma); type: cell-based; conditions: 0.18 μM and 1.0 μM, 4 hours, Western blot (FIG. 5C)
Procedure: as §1

[10] = system: retinoblastoma (Rb) protein; experiment: Rb protein expression in PDX511 medulloblastoma cells (immunofluorescence); type: cell-based, human (patient-derived)
[11] = system: Myc; experiment: Myc inhibition assay: Myc expression per cell by anti-Myc immunofluorescence, high-content imaging; type: cell-based, human (patient-derived medulloblastoma xenograft cells)
Outline: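 Cells from Myc-driven medulloblastoma patient-derived orthotopic xenografts, propagated only in NSG mouse cerebellum, were dissociated and plated in serum-free medium. After overnight recovery, compounds were applied for 4 hours; cells were then fixed, stained for Myc and DAPI, and per-cell Myc quantified by high-content imaging to derive IC50.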

[12] = Table 1, medulloblastoma PDX cells, 4 h, read-out: IC50 (Myc inhibition)
[13] = Table 2, medulloblastoma PDX cells, 4 h, read-out: MYC Inhibition IC50

SMILES: FC(F)c1cccc(Nc2cc(-c3ccc4[nH]cnc4c3)ccn2)n1 [Compound 278, N-(4-(1H-benzo[d]imidazol-5-yl)pyridin-2-yl)-6-(difluoromethyl)pyridin-2-amine]
- IC50 [11, 12]: < 200 nM
- IC50 [11, 13]: < 200 nM

SMILES: Fc1cnc(Nc2cccc(C(F)(F)F)n2)cc1-c1ccc2nc[nH]c2c1 [Compound 279, 4-(1H-benzo[d]imidazol-6-yl)-5-fluoro-N-(6-(trifluoromethyl)pyridin-2-yl)pyridin-2-amine]
- IC50 [11, 12]: < 200 nM
- IC50 [11, 13]: < 200 nM

SMILES: FC(F)(F)c1cccc(Nc2cc(-c3ccc4nc[nH]c4c3)ccn2)n1 [Compound 281, N-(4-(1H-benzo[d]imidazol-6-yl)pyridin-2-yl)-6-(trifluoromethyl)pyridin-2-amine]
- IC50 [11, 12]: < 200 nM
- IC50 [11, 13]: < 200 nM

SMILES: COc1ccc(Nc2nccc(-c3ccncc3)n2)cc1 [Compound A]
- effect on cell viability [7]: no effect
- effect on expression of the retinoblastoma (Rb) protein [10]: no effect
- IC50 ([11]; read-out: Myc expression inhibition IC50, PDX511 medulloblastoma cells, 4 h (FIG. 2A)): 11700 nM

More lines, main results first:

- time for which brain concentration remained above the IC90 level ([2]; brain): more than 6 hours
- time for which plasma concentration remained above the IC90 level ([2]; plasma): more than 6 hours
- IC50 [11, 12]: < 200 nM
- IC50 [11, 13]: < 200 nM
SMILES: FC(F)(F)c1cccc(Nc2nccc(-c3ccc4nc[nH]c4c3)n2)c1 [Compound 171, 4-(1H-Benzo[d]imidazol-6-yl)-N-(3-(trifluoromethyl)phenyl)pyrimidin-2-amine 2HCl]
- inhibition of Myc, HL-60 [1]: substantial inhibition of Myc
- blood-brain-barrier crossing and retention in the brain [2]: ability to cross the blood-brain-barrier with good retention in the brain
- inhibition of Myc expression at 2 and 4 hours ([3]; 2 and 4 hours vs 1 hour): greater inhibition
- time of first inhibition of Myc expression [3]: ≤ 1 h
- reduction in cell viability by 48 hours ([4]; 48 hours, CellTiter Glo (FIG. 4B)): 80%
- reduction in cell viability by 96 hours ([4]; 96 hours, CellTiter Glo (FIG. 4C)): 100%
- inhibition of Myc, H-82 [5]: substantial inhibition of Myc
- inhibition of Myc, THP-1 [6]: substantial inhibition of Myc
- effect on cell viability [7]: no effect
- reduction of Myc levels in intracranial tumors ([8]; 100 mg/kg oral (FIG. 7)): reduction of Myc levels
- mice with undetectable Myc expression in intracranial tumors ([8]; 100 mg/kg oral, after more than 5 hours (5.5 hours), Western blot): 3 out of 6
- inhibition of Myc, BxPC-3 [9]: substantial inhibition of Myc
- effect on expression of the retinoblastoma (Rb) protein [10]: no effect
- Myc expression inhibition (in words) ([11]; PDX511 medulloblastoma cells (FIG. 3A)): Myc expression inhibition

- IC50 [11, 12]: < 200 nM
- IC50 [11, 13]: < 200 nM
SMILES: FC(F)c1cccc(Nc2nccc(-c3ccc4nc[nH]c4c3)n2)c1 [Compound 280, 4-(1H-benzo[d]imidazol-5-yl)-N-(3-(difluoromethyl)phenyl)pyrimidin-2-amine]
